In brackets after ≈: the same amount, converted by molar mass. Like-named read-outs stand apart in the source and are kept apart here. One block for each compound: values may come before it. Ends that are not written are not given here.
Assays:
C. albicans = format: cell-based, Candida albicans
Method: (§1) Broth Dilution Antifungal Susceptibility Testing
(§2) The sensitivity of relevant fungal strains to the peptides was determined using Clinical Laboratory Standard Institute (CLSI; formerly NCCLS) Approved Standards.

C. parapsilosis = format: cell-based, Candida parapsilosis
Method: as §1
The sensitivity of relevant fungal strains to the peptides was determined using Clinical Laboratory Standard Institute (CLSI; formerly NCCLS) Approved Standards. Fungal susceptibility was tested using “Reference Method for Broth Dilution Antifungal Susceptibility Testing of Filamentous Fungi; […];

C. krusei = format: cell-based, Candida krusei
Method: as §1, §2

C. tropicalis = experiment: Broth dilution antifungal susceptibility testing of yeasts (CLSI M27-A), MIC; format: cell-based, Candida tropicalis; conditions: C. tropicalis strain ATCC750
Method: as §1
The sensitivity of relevant fungal strains to the peptides was determined using Clinical Laboratory Standard Institute (CLSI; formerly NCCLS) Approved Standards. Fungal susceptibility was tested using “Reference Method for Broth Dilution Antifungal Susceptibility Testing of Filamentous Fungi; Approved Standard M38-P”, and yeast susceptibility was tested using “Reference Method for Broth Dilution Antifungal Susceptibility Testing of Yeasts; Approved Standard—Second Edition M27-A”.

Trichophyton rubrum = format: cell-based
Method: as §1, §2

Malasezzia furfur = format: cell-based; conditions: Malasezzia furfur strain DSM6170
Method: as §1, §2

MIC (C. albicans): >2048 µM
Compound: KKKKKKKKKKK [NP346]

MIC, Candida albicans NCTC3179 (C. albicans): >2000 µM
MIC (Trichophyton rubrum): >2 µM
Compound: RRVVRR [NP305, RRVVRR]

MIC (C. albicans): >2048 µM
Compound: RRRRR [NP357, RRRRR]

MIC, Candida albicans NCTC3179 (C. albicans): >2000 µM
MIC (Trichophyton rubrum): >2 µM
Compound: RRVRVRR [NP307, RRVRVRR]

MIC, Candida albicans ATCC24433 (C. albicans): 1024 µM
MIC, Candida albicans ATCC90028 (C. albicans): 512 µM
MIC, Candida albicans NCTC3179 (C. albicans): 512 µM
MIC, Candida krusei NCPF3953 (C. krusei): 64 µM
Compound: RRRWWRRR [NP327]

MIC, Candida albicans NCTC3179 (C. albicans): >2000 µM
Compound: GKKEKPEKKVKK [NP331]

MIC, Candida albicans NCTC3179 (C. albicans): >2000 µM
Compound: KKKDKVKK [NP334]

MIC, Candida albicans NCTC3179 (C. albicans): >2000 µM
Compound: KLTKPKPQAESKKKKK [NP332]

MIC (C. albicans): 64 µM (≈ 111 µg/mL)
MIC (C. krusei): 8 µM (≈ 13.9 µg/mL)
Compound: N=C(N)NCCC[C@H](NC(=O)[C@H](CCCNC(=N)N)NC(=O)[C@H](CCCNC(=N)N)NC(=O)[C@H](CCCNC(=N)N)NC(=O)[C@H](CCCNC(=N)N)NC(=O)[C@H](CCCNC(=N)N)NC(=O)[C@H](CCCNC(=N)N)NC(=O)[C@H](CCCNC(=N)N)NC(=O)[C@H](CCCNC(=N)N)NC(=O)[C@H](CCCNC(=N)N)NC(=O)[C@@H](N)CCCNC(=N)N)C(=O)O [NP350]

MIC, Candida albicans NCTC3179 (C. albicans): >2000 µM
MIC (Trichophyton rubrum): >2 µM
Compound: RRVVR [NP302, RRVVR]

The next lines start with the compound.

Compound: PKTKAKAKAKKGKGKD [NP336]
MIC, Candida albicans NCTC3179 (C. albicans): >2000 µM

Compound: KKKKKKK [NP344, KKKKKKK]
MIC (C. albicans): >2048 µM

Compound: CC(=O)N[C@H](CCCNC(=N)N)C(=O)N[C@H](CCCNC(=N)N)C(=O)N[C@H](CCCNC(=N)N)C(=O)N[C@H](CCCNC(=N)N)C(=O)N[C@H](CCCNC(=N)N)C(=O)N[C@H](CCCNC(=N)N)C(=O)N[C@H](CCCNC(=N)N)C(=O)N[C@H](CCCNC(=N)N)C(=O)N[C@H](CCCNC(=N)N)C(=O)N[C@H](CCCNC(=N)N)C(=O)N[C@H](CCCNC(=N)N)C(=O)N[C@H](CCCNC(=N)N)C(=O)N[C@H](CCCNC(=N)N)C(N)=O [NP340, Ac-dRdRdRdRdRdRdRdRdRdRdRdRdR-NH2]
MIC (C. parapsilosis; C. parapsilosis strain ATCC22019): 2 µM (≈ 4.18 µg/mL)
MIC (C. parapsilosis; C. parapsilosis strain ATCC90018): 2 µM (≈ 4.18 µg/mL)
MIC, Candida albicans ATCC90028 (C. albicans): 2 µM (≈ 4.18 µg/mL)
MIC (C. krusei; C. krusei strain ATCC6258): 4 µM (≈ 8.36 µg/mL)
MIC (C. tropicalis): 2 µM (≈ 4.18 µg/mL)

Compound: KKKKKKKKKKKKK [NP347]
MIC (C. albicans; C. albicans strain NCTC3179): >2048 µM

Compound: N=C(N)NCCC[C@H](NC(=O)[C@H](CCCNC(=N)N)NC(=O)[C@H](CCCNC(=N)N)NC(=O)[C@H](CCCNC(=N)N)NC(=O)[C@H](CCCNC(=N)N)NC(=O)[C@H](CCCNC(=N)N)NC(=O)[C@H](CCCNC(=N)N)NC(=O)[C@H](CCCNC(=N)N)NC(=O)[C@H](CCCNC(=N)N)NC(=O)[C@H](CCCNC(=N)N)NC(=O)[C@H](CCCNC(=N)N)NC(=O)[C@H](CCCNC(=N)N)NC(=O)[C@@H](N)CCCNC(=N)N)C(=O)O [NP351]
MIC (C. albicans): 4 µM (≈ 8.19 µg/mL)
MIC (C. krusei; C. krusei strain NCPF3953): 32 µM (≈ 65.6 µg/mL)

Compound: KKKKKKKKK [NP345]
MIC (C. albicans): >2048 µM

Compound: RRVRRVRR [NP309]
MIC, Candida albicans NCTC3179 (C. albicans): >2000 µM
MIC (Trichophyton rubrum): >2 µM

Compound: KVRQGTLKKAR [NP335]
MIC, Candida albicans NCTC3179 (C. albicans): >2000 µM

Compound: Poly-L-Lysine (MW 0.5-2 kDa) [NP112]
MIC (Malasezzia furfur): 512 (μg/ml)

Compound: RRVRVR [NP304, RRVRVR]
MIC, Candida albicans NCTC3179 (C. albicans): >2000 µM
MIC (Trichophyton rubrum): >2 µM

Compound: RRRVVRRR [NP308]
MIC, Candida albicans NCTC3179 (C. albicans): >2000 µM
MIC (Trichophyton rubrum): >2 µM

Compound: ILRWPWWPWRRK-NH2 [NP354]
MIC (C. krusei; C. krusei strain NCPF3953): >2048 µM
